Structures can show the parent of a compound that is named as a salt.
Target: T1, TAFIa (Homo sapiens, UniProt Q96IY4)
T1 construct: purchased Enzyme Research Laboratories
T1 sequence (Q96IY4 115-423): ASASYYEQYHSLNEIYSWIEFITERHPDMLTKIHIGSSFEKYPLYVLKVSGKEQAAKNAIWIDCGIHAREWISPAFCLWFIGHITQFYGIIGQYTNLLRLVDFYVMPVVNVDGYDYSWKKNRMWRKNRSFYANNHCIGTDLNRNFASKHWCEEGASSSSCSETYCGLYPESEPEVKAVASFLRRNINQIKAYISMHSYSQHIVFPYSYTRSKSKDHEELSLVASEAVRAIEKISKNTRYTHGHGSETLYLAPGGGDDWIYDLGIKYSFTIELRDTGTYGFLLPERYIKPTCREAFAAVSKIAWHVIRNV
Experiment: TAFIa inhibition test (Hip-Arg substrate, absorbance at 405 nm)
Type: biochemical
Settings: TAFI activated with thrombin/thrombomodulin, 40 minutes at room temperature, read-out: TAFIa inhibitory activity IC50
Method: Test 1 [TAFIa Inhibition Test]
Compounds of the present invention were measured for their TAFIa inhibitory activity as follows based on the method described in Thromb. Haemost. 79, 371-377 (1998).
(a) Preparation of TAFIa Solution
To 450 μl of TAFI (the product of Enzyme Research Laboratories whose concentration was adjusted to 18 μg/ml with buffer A: 100 mM Tris-HCl, pH 7.4), 45 μl of a thrombomodulin solution (a rabbit lung derived thrombomodulin produced by American Diagnostica whose concentration was adjusted to 1 μg/ml with buffer B: 50 mM Tris-HCl, pH 7.5, containing 0.15 M NaCl) and 45 μl of a thrombin solution (a freeze-dried human plasma derived thrombin produced by Sigma and dissolved in water to have a concentration of 30 μU/ml) were added and the mixture was left to stand at room temperature for 25 minutes.
(b) Method of Measuring TAFIa Inhibitory Activity […]
Subsequently, a color former (1% cyanuric chloride in 1,4-dioxane) was added in an amount of 50 μl to each well and the plate was left to stand for 3 minutes at room temperature, then absorbance at 405 nm was measured with a microplate reader (Spectramax M2 of Molecular Devices). […]
For two compounds of the present invention, the above test was conducted and on the basis of the results of measurements, TAFIa inhibitory activity was calculated to give the results shown in Table 2.

IC50	Compound
36 nM	N[C@H]1CCN([C@@H](Cc2ncn3c2CCc2ccccc2-3)C(=O)O)C1 [Compound 1, (2S)-2-[(3S)-3-aminopyrrolidin-1-yl]-3-(4,5-dihydroimidazo[1,5-a]quinolin-3-yl)propanoic acid trihydrochloride]
23 nM	Cc1ccc2c(c1)CCc1c(C[C@@H](C(=O)O)N3CC[C@H](N)C3)ncn1-2 [Compound 2, (2S)-2-[(3S)-3-aminopyrrolidin-1-yl]-3-(7-methyl-4,5-dihydroimidazo[1,5-a]quinolin-3-yl)propanoic acid trihydrochloride]
